Reference: paper PMC5564600 (Oncotarget, 2017)

Key:
Experiment in all cases: biochemical
Type in all cases: binding
[1] = target: T1, panel of 442 kinases (Homo sapiens, UniProt Q13237); settings: kinase PRKG2; for remaining activity at 1 µM: read-out: PRKG2 (% of control at 1 µM)
T1 construct: purchased Ambit Biosciences (scanMAXX KINOMEscan)
T1 sequence (Q13237 1-762): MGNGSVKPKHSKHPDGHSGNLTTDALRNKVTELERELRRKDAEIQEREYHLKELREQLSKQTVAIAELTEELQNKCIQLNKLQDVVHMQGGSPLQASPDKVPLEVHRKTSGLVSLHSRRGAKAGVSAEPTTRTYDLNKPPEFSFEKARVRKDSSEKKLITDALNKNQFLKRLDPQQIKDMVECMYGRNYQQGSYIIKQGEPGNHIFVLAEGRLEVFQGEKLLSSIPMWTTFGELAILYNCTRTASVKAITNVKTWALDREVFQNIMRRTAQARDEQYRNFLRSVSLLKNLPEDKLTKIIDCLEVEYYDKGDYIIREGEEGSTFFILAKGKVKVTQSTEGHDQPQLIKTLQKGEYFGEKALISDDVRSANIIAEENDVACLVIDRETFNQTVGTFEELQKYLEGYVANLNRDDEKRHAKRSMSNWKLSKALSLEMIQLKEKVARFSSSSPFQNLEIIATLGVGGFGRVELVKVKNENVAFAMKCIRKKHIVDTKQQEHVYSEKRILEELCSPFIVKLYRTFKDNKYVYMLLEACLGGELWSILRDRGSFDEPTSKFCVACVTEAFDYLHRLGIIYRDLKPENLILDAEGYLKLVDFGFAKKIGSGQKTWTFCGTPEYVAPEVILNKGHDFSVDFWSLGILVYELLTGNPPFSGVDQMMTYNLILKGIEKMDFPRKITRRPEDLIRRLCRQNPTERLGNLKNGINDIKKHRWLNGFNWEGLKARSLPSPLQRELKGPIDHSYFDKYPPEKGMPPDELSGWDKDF

[2] = target: T2, panel of 442 kinases (Homo sapiens, UniProt P54753); settings: EPHB3; for remaining activity at 1 µM: read-out: % of control at 1 µM
T2 construct: purchased Ambit Biosciences (scanMAXX KINOMEscan)
T2 sequence (P54753 34-998): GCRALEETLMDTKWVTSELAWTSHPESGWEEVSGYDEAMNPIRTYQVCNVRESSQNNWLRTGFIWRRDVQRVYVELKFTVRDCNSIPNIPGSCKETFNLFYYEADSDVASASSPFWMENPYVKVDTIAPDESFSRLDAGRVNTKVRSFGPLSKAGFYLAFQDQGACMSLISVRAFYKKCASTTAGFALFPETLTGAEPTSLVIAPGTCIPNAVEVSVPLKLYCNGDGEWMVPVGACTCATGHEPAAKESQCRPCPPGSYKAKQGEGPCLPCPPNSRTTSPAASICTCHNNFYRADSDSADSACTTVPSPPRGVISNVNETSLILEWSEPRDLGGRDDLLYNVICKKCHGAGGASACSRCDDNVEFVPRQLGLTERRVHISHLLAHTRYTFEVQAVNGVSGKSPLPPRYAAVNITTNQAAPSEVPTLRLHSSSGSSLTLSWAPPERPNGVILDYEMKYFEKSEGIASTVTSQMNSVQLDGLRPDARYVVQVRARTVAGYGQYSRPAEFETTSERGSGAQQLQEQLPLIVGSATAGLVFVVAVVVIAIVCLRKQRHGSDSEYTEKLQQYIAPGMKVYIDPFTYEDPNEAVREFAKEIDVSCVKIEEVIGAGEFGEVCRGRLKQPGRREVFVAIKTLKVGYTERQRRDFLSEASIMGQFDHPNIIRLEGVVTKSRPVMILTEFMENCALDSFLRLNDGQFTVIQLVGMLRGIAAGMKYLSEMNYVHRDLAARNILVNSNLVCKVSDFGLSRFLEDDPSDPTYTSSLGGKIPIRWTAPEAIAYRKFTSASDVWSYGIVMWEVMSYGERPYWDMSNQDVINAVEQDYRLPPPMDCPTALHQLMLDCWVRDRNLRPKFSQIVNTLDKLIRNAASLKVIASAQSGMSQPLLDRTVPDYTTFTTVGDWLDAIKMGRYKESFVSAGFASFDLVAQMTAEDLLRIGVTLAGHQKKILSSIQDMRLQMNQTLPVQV

[3] = target: T3, panel of 442 kinases (Homo sapiens, UniProt Q9Y5S2); settings: kinase MRCKB; for remaining activity at 1 µM: read-out: % of control at 1 µM
T3 construct: purchased Ambit Biosciences (scanMAXX KINOMEscan)
T3 sequence (Q9Y5S2 whole entry): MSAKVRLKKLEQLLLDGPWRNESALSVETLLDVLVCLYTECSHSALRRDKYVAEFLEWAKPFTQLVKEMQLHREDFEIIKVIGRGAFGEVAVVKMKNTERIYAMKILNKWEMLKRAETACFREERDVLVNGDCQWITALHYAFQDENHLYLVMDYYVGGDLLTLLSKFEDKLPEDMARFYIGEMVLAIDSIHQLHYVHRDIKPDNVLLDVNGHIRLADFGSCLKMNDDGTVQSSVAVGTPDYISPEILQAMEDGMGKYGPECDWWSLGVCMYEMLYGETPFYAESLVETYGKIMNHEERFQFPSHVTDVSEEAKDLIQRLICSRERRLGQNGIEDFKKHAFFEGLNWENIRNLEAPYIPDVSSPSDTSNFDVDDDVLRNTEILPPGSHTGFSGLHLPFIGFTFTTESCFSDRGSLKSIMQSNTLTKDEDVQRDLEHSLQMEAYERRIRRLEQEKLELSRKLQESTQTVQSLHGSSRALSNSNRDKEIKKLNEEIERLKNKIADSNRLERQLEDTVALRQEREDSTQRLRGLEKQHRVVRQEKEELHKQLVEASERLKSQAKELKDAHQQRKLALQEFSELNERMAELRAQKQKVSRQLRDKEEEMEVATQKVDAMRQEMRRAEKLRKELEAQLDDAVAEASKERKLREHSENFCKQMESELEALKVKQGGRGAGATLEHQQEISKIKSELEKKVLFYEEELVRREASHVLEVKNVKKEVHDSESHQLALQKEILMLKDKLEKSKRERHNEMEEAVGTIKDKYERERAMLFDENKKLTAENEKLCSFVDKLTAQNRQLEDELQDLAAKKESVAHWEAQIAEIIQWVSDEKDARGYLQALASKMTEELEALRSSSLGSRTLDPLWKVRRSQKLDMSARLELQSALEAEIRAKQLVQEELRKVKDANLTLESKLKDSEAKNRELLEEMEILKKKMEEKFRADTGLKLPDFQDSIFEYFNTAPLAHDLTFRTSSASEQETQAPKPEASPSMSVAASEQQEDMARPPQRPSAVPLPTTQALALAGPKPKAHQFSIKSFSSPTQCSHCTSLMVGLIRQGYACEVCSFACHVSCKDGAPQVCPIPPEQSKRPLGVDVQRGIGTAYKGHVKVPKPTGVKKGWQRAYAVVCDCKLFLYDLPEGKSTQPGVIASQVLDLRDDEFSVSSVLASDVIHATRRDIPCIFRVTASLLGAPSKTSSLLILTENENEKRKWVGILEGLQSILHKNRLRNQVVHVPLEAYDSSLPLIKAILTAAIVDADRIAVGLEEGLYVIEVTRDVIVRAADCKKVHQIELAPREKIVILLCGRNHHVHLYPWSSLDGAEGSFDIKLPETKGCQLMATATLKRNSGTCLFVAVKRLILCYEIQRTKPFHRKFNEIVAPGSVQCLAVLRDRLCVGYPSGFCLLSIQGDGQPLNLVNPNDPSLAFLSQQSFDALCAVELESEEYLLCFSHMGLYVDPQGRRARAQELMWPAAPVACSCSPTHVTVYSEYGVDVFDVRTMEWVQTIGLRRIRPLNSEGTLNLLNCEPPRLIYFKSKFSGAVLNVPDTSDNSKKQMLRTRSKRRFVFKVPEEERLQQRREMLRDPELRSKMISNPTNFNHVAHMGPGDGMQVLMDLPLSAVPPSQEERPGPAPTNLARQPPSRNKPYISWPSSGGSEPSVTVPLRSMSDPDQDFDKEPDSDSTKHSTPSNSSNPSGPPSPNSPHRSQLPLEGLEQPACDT

[4] = target: T4, panel of 442 kinases (Homo sapiens, UniProt O75460); settings: ERN1; for remaining activity at 1 µM: read-out: % of control at 1 µM
T4 construct: purchased Ambit Biosciences (scanMAXX KINOMEscan)
T4 sequence (O75460 19-977): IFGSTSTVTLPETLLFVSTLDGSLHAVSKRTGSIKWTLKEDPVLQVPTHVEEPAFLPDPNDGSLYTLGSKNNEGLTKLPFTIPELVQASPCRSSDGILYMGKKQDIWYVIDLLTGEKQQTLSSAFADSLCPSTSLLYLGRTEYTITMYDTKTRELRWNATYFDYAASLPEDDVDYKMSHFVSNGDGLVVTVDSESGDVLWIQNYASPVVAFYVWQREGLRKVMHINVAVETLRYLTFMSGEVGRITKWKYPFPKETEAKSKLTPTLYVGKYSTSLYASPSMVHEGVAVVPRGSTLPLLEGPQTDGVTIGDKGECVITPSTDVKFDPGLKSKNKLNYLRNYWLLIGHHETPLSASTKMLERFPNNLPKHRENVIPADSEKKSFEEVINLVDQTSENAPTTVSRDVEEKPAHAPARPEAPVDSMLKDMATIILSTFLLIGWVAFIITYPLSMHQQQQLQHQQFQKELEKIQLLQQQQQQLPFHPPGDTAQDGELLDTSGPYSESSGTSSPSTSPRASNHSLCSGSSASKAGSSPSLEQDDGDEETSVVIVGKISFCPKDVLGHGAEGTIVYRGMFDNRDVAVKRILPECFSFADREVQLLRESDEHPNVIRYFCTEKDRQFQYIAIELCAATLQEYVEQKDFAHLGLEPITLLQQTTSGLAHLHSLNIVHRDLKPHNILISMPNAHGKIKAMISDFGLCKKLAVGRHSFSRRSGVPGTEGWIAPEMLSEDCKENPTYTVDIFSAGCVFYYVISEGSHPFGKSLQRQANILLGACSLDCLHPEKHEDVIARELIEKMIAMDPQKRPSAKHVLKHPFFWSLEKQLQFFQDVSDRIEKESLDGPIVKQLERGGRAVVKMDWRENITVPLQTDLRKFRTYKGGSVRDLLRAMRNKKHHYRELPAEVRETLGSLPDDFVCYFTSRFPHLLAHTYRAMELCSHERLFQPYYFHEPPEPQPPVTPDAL

[5] = target: T5, panel of 442 kinases (Homo sapiens, UniProt O14757); settings: CHEK1; for remaining activity at 1 µM: read-out: % of control at 1 µM
T5 construct: purchased Ambit Biosciences (scanMAXX KINOMEscan)
T5 sequence (O14757 1-476): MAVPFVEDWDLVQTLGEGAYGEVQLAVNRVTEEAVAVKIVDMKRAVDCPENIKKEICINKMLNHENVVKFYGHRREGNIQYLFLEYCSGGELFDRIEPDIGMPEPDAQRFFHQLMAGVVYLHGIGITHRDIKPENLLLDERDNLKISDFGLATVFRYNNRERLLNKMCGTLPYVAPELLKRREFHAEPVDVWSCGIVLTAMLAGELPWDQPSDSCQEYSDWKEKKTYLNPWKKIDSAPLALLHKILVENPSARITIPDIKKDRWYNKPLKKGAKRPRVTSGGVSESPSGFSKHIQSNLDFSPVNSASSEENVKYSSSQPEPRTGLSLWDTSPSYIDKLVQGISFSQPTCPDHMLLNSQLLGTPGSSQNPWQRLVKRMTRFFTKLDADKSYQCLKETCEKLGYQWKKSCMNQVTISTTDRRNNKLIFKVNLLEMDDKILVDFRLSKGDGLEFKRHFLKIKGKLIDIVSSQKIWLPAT

[6] = target: T6, panel of 442 kinases (Homo sapiens, UniProt Q8IY84); settings: kinase NIM1; for remaining activity at 1 µM: read-out: % of control at 1 µM
T6 construct: purchased Ambit Biosciences (scanMAXX KINOMEscan)
T6 sequence (Q8IY84 whole entry): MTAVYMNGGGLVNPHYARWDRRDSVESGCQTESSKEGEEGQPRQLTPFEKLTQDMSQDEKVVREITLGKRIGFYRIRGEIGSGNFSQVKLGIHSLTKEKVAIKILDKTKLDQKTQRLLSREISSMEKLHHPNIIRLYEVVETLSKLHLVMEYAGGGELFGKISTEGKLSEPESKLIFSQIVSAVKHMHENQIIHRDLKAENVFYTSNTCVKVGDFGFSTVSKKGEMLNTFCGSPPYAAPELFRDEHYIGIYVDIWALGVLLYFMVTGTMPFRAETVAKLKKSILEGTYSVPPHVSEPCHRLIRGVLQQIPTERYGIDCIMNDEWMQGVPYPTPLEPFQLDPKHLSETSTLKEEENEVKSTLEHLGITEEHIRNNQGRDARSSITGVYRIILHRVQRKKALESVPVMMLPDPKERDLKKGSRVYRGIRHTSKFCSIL

[7] = 10 µM, read-out: % of control at 10 µM

Row | Structure (SMILES) | remaining activity at 1 µM [1] | remaining activity at 10 µM ([1]; 10 µM, read-out: PRKG2 (% of control at 10 µM)) | remaining activity at 1 µM [2] | remaining activity at 10 µM [2, 7] | remaining activity at 1 µM [3] | remaining activity at 10 µM [3, 7] | remaining activity at 1 µM [4] | remaining activity at 10 µM [4, 7] | remaining activity at 1 µM [5] | remaining activity at 10 µM [5, 7] | remaining activity at 1 µM [6] | remaining activity at 10 µM [6, 7]
1 | Nc1cc(C(F)(F)F)c(-c2cc(N3CCOCC3)nc(N3CCOCC3)n2)cn1 [Buparlisib] | 93% | 100% | 91% | 100% | 100% | 100% | 100% | 100% | 79% | 82% | 89% | 86%
2 | COc1ncc(-c2ccc3nccc(-c4ccnnc4)c3c2)cc1NS(=O)(=O)c1ccc(F)cc1F [Omipalisib] | 96% | – | 100% | – | 100% | – | 73% | – | 100% | – | 100% | –
3 | FC(F)c1nc2ccccc2n1-c1nc(N2CCOCC2)nc(N2CCOCC2)n1 [ZSTK474, 2-(difluoromethyl)-1-[4,6-di(4-morpholinyl)-1,3,5-triazin-2-yl]-1H-benzimidazole] | 95% | – | 56% | – | 80% | – | 90% | – | 92% | – | 100% | –
4 | Cn1c(=O)n(-c2ccc(C(C)(C)C#N)cc2)c2c3cc(-c4cnc5ccccc5c4)ccc3ncc21 [Dactolisib, 2-methyl-2-[4-(3-methyl-2-oxo-8-quinolin-3-yl-2,3-dihydroimidazo[4,5-c]quinolin-1-yl)-phenyl] propionitrile] | 84% | – | 70% | – | 86% | – | 100% | – | 100% | – | 100% | –
